Where two headings read alike, the source gives them in different places.
Key:
[1] = Water retention capacity of skin flaps (stratum corneum samples soaked in active solution, dried, rehydrated; desorbed water quantified by GC-MS); conditions: 90% d'humidité relative
Description: Des échantillons de stratum corneum sont immergés pendant 24 heures dans une solution de l'actif à analyser. Ils sont ensuite séchés pendant 24 heures dans un dessicateur sur silicagel puis réhydratés pendant 48 heures dans une enceinte à 90% d'humidité relative.
Ces échantillons sont analysés après l'étape de séchage et après l'étape de réhydratation. La technique utilisée est la chromatographie en phase gazeuse couplée à la spectrométrie de masse.
Les échantillons de peau pesés sont placés dans un four chauffé à 100°C, la vapeur d'eau désorbée est entrainée par un gaz de balayage sec vers le chromatographe où elle sera détectée.
Un spectre est obtenu en sortie de l'appareil. L'eau désorbée est quantifiée par la mesure de l'aire du pic. Le spectromètre de masse couplé à la CPG permet de s'assurer que le composé désorbé et quantifié est bien de l'eau.
Cette technique allie donc une analyse qualitative à une analyse quantitative. Les résultats sont donnés en pourcentage d'eau retenue et permettent donc d'évaluer le pouvoir hygroscopique des produits.
Les résultats sont présentés sur la figure 1.

[2] = tested on: contaminations microbiennes; conditions: cream containing 13%, no other preservative
[3] = for effet hydratant: topical on forearm, 0-6 h
Description: La spectroscopie infrarouge in vivo est une technique non invasive, rapide et de grande sensibilité. Les molécules absorbent toutes différemment le rayonnement infrarouge. C'est en analysant leur spectre d'absorption que l'on peut retrouver la structure de la molécule.
En fonction de l'application de divers traitements, des liaisons entre l'eau apportée et la peau se créent et entraînent des modifications de certaines bandes d'absorption.
Ainsi seront analysés sur le spectre les pics suivants : • le pic d'absorption dû à l'élongation de la liaison OH de l'eau à 2100 cm-1. Les variations d'intensité de ce pic ne sont pas visibles à l'oeil nu mais elles sont significatives et donc enregistrées. • le pic d'absorption dû à l'élongation des liaisons amide I à 1640 cm-1. L'élongation de cette liaison se trouve modifiée lorsque des liaisons hydrogènes se créent par apport d'eau. • le pic d'absorption dû à l'élongation des liaisons amide II à 1540 cm-1. Ce pic n'est influencé par la présence d'eau que de façon négligeable; il est donc utilisé pour pondérer les deux pics précédents.
Les préparations cosmétiques à tester sont appliquées sur une zone délimitée de l'avant-bras. Une zone non traitée est conservée comme témoin.
Pour chaque spectre obtenu sont mesurés les rapports suivants : (amideI)/(amideII)appelé facteur d'hydratation (ou MF); (eau)/(amideII) [formula]
Ces rapports sont calculés aux temps 0, 1, 2, ..., 6 heures et les courbes suivantes sont tracées : MF témoin(t) - MF bras traité(t) = f(t) avec t, représentant le temps en heures.; (eau)/(amideII)témoin(t) -(eau)/(amideII)bras traité(t) = f(t) [formula]
L'allure de ces courbes est ensuite comparée. En effet, le pic des amides I pourrait être directement influencé par le produit appliqué alors que le pic à 2100 cm-1 n'est influencé que par l'eau.
Si les deux courbes obtenues évoluent dans le même sens, on peut considérer que la variation enregistrée rend bien compte de la fixation de l'eau sur la peau. Dans le cas contraire, il faut émettre des réserves sur les conclusions à apporter.
On teste par cette technique des crèmes contenant 5% et 13% de glycolate de guanidine, de formules suivantes (les pourcentages sont exprimés en p/p) :
Les effets sont comparés avec ceux de compositions contenant : • 15% glycérol • 5% glycérol • 13% lactate d'ammonium • 5% lactate d'ammonium.

[4] = compared with lactate d'ammonium
Corynébactéries = conditions: bacteria involved in body odour (armpits)

Compound | eau retenue ([1]; skin treated with 15% solution) | eau retenue ([1]; skin treated with 13% solution) | protection contre les contaminations microbiennes (conservateur) [2] | effet hydratant ([3]; cream containing 5% (formula B), figure 3) | durée de la différence d'hydratation ([3]; cream containing 5% vs 5% glycérol cream) | effet hydratant ([3]; cream containing 13% (formula A), figure 2) | durée de la différence d'hydratation ([3]; cream containing 13% vs placebo and 13% lactate d'ammonium cream) | propriétés kératorégulatrices [4] | activité bactéricide (Corynébactéries)
OCC(O)CO [glycérol] | 125% | – | – | – | – | – | – | – | –
CC(O)C(=O)O (stereo not shown) [lactate d'ammonium] | – | 135% | – | – | – | – | – | – | –
glycolate de guanidine | – | 300% | s'auto-protège contre les contaminations microbiennes | beaucoup plus hydratante que celle contenant 5% de glycérol | > 6 heures | beaucoup plus hydratante que le placebo et que la crème contenant 13% de lactate d'ammonium | > 6 heures | supérieures à celles du lactate d'ammonium | actif sur des bactéries impliquées dans la formation d'odeurs corporelles
